Measurements reported in patent publication US11058680B2, “Combinations of opioid/TLR4 antagonists and acetaminophen for use in the treatment of emotional pain and insomnia” (Allodynic Threapeutics, LLC, priority 2016, dated 2021).
Several values for one entry are separate records, joined by “and”; a condition that tells them apart may be missing. Identical values can stand only once.

Test system: migraine attacks
Assay: Naltrexone/acetaminophen open-label pilot study, acute treatment of migraine: headache pain (4-point scale; relief score ≤1, pain-free score = 0), associated symptoms, additional meds
Assay type: in vivo, human
Experimental: Sixteen unique patients were enrolled in an open phase pilot study for the acute treatment of migraine attacks, insomnia, and emotional pain. Of the sixteen patients, eleven were evaluated for one migraine attack, one for two attacks, two for four attacks, one for six attacks, and one for fourteen attacks. A total of forty-one […] treatments were evaluated. Patients received a single dose of one of the following treatment options:
The majority of the patients remained in the clinic for observation for 2 hours after dosing. They completed headache diary assessments immediately before and after dosing at time points: 7, 15, and 30 minutes; and 1, 1.5, 2, 3, 6, 12, 24, and 48 hours. Headache pain was assessed on a 4-point scale (0=none; 1=mild; 2=moderate; 3=severe). The assessment of photophobia, phonophobia, nausea, and neck/shoulder pain was assessed as present or absent. The assessment of emotional pain was recorded on a 4-point scale (0=none, 1=mild, 2=moderate, 3=severe). The assessment of difficulty sleeping or falling asleep (insomnia) was assessed on a 4-point scale (0=none, 1=mild, 2=moderate, 3=severe) at baseline, for the night before treatment and for the following nights at 24, and 48 hours. Patients recorded side effects severity at each time point. Patients recorded the time of the first rescue medication dose and all additional headache medications used within 48 hours. Patients were required to stay awake to record their assessments in the first 2 hours, sleeping was permitted thereafter. While asleep, assessments were completed according to patients' best estimation. For data analysis, it was assumed that a migraine attack is a unique patient. Patients were asked to specify (yes or no answer) to whether they experienced emotional pain symptoms such as: hurt feelings, sadness, fear, or anger. Patients who replied positively to having emotional pain were asked to specify the cause into one of the following options: relationship, work/school, money/debt, health, or loss/grief.

[1] = 12 h, NTX/APAP 2.25 mg/325 mg, NTX 2.25 mg
[2] = 12 h, NTX/APAP 3.25 mg/325 mg, NTX 3.25 mg
[3] = 12 h, NTX/APAP 5 mg/325 mg, NTX 5 mg
[4] = 12 h, NTX/APAP […]325 mg, NTX 1.5 mg
[5] = 12 h, naltrexone/acetaminophen 2.25 mg/325 mg (N=21), naltrexone 2.25 mg (N=9)
[6] = 24 h, NTX/APAP 2.25 mg/325 mg, NTX 2.25 mg
[7] = 24 h, NTX/APAP 3.25 mg/325 mg, NTX 3.25 mg
[8] = 24 h, NTX/APAP 5 mg/325 mg, NTX 5 mg
[9] = 24 h, NTX/APAP […]325 mg, NTX 1.5 mg
[10] = 24 h, naltrexone/acetaminophen 2.25 mg/325 mg (N=21), naltrexone 2.25 mg (N=9)
[11] = 48 h, NTX/APAP 2.25 mg/325 mg, NTX 2.25 mg
[12] = 48 h, NTX/APAP 3.25 mg/325 mg, NTX 3.25 mg
[13] = 48 h, NTX/APAP 5 mg/325 mg, NTX 5 mg
[14] = 48 h, NTX/APAP […]325 mg, NTX 1.5 mg
[15] = 48 h, naltrexone/acetaminophen 2.25 mg/325 mg (N=21), naltrexone 2.25 mg (N=9)

For `O=C1CC[C@@]2(O)[C@H]3Cc4ccc(O)c5c4[C@@]2(CCN3CC2CC2)[C@H]1O5` [naltrexone], the Nausea-free [1] was 9 (100) n (%), the Neck/shoulder pain-free [1] was 9 (100) n (%) and the Phonophobia-free [1] was 9 (100) n (%). The Photophobia-free [1] was 8 (88) n (%), the Additional meds taken [2] was 0 and the Headache pain-free [2] was 3 (100) n (%). The Headache pain-relief [2] was 3 (100) n (%), the Most bothersome symptom-free [2] was 3 (100) n (%) and the Nausea-free [2] was 3 (100) n (%). For the same compound, the Neck/shoulder pain-free [2] was 3 (100) n (%), the Phonophobia-free [2] was 3 (100) n (%) and the Photophobia-free [2] was 3 (100) n (%). For the same compound, the Additional meds taken [3] was 0, the Headache pain-free [3] was 1 (100) n (%) and the Headache pain-relief [3] was 1 (100) n (%). For the same compound, the Most bothersome symptom-free [3] was 1 (100) n (%), the Nausea-free [3] was 1 (100) n (%) and the Neck/shoulder pain-free [3] was 1 (100) n (%). For the same compound, the Phonophobia-free [3] was 1 (100) n (%), the Photophobia-free [3] was 1 (100) n (%) and the Additional meds taken [4] was 0. The Headache pain-free [4] was 3 (100) n (%), the Headache pain-relief [4] was 3 (100) n (%) and the Most bothersome symptom-free [4] was 3 (100) n (%). The Nausea-free [4] was 3 (100) n (%), the Neck/shoulder pain-free [4] was 3 (100) n (%) and the Phonophobia-free [4] was 3 (100) n (%). The Photophobia-free [4] was 3 (100) n (%), the Additional meds taken (12 h, combined doses) was 0 and the Headache pain-free (12 h, combined doses) was 14 (88) n (%). The Headache pain-relief (12 h, combined doses) was 16 (100) n (%), the Most bothersome symptom-free (12 h, combined doses) was 16 (100) n (%) and the Nausea-free (12 h, combined doses) was 16 (100) n (%). For the same compound, the Neck/shoulder pain-free (12 h, combined doses) was 16 (100) n (%), the Phonophobia-free (12 h, combined doses) was 16 (100) n (%) and the Photophobia-free (12 h, combined doses) was 15 (94) n (%). For the same compound, the Headache pain-free (12 h, naltrexone 1.5 mg (N=3)) was 100%, the Headache pain-free [5] was 77% and 100% and the Headache pain-relief [5] was 100%. For the same compound, the Most bothersome symptom-free [5] was 100%, the Headache pain-free (12 h, naltrexone/acetaminophen 3.25 mg/325 mg (N=3), naltrexone 3.25 mg (N=3)) was 100% and the Additional meds taken [6] was 0. For the same compound, the Headache pain-free [6] was 8 (88) n (%), the Headache pain-relief [6] was 9 (100) n (%) and the Most bothersome symptom-free [6] was 9 (100) n (%). For the same compound, the Nausea-free [6] was 9 (100) n (%), the Neck/shoulder pain-free [6] was 9 (100) n (%) and the Phonophobia-free [6] was 9 (100) n (%). The Photophobia-free [6] was 9 (100) n (%), the Additional meds taken [7] was 0 and the Headache pain-free [7] was 3 (100) n (%). For the same compound, the Headache pain-relief [7] was 3 (100) n (%), the Most bothersome symptom-free [7] was 3 (100) n (%) and the Nausea-free [7] was 3 (100) n (%). The Neck/shoulder pain-free [7] was 3 (100) n (%), the Phonophobia-free [7] was 3 (100) n (%) and the Photophobia-free [7] was 3 (100) n (%). The Additional meds taken [8] was 0, the Headache pain-free [8] was 1 (100) n (%) and the Headache pain-relief [8] was 1 (100) n (%). The Most bothersome symptom-free [8] was 1 (100) n (%), the Nausea-free [8] was 1 (100) n (%) and the Neck/shoulder pain-free [8] was 1 (100) n (%). For the same compound, the Phonophobia-free [8] was 1 (100) n (%), the Photophobia-free [8] was 1 (100) n (%) and the Additional meds taken [9] was 0. For the same compound, the Headache pain-free [9] was 3 (100) n (%), the Headache pain-relief [9] was 3 (100) n (%) and the Most bothersome symptom-free [9] was 3 (100) n (%). The Nausea-free [9] was 3 (100) n (%), the Neck/shoulder pain-free [9] was 3 (100) n (%) and the Phonophobia-free [9] was 3 (100) n (%). For the same compound, the Photophobia-free [9] was 3 (100) n (%), the Additional meds taken (24 h, combined doses) was 0 and the Headache pain-free (24 h, combined doses) was 15 (94) n (%). The Headache pain-relief (24 h, combined doses) was 16 (100) n (%), the Most bothersome symptom-free (24 h, combined doses) was 16 (100) n (%) and the Nausea-free (24 h, combined doses) was 16 (100) n (%). The Neck/shoulder pain-free (24 h, combined doses) was 16 (100) n (%), the Phonophobia-free (24 h, combined doses) was 16 (100) n (%) and the Photophobia-free (24 h, combined doses) was 16 (100) n (%). The Headache pain-free (24 h, naltrexone 1.5 mg (N=3)) was 100%, the Headache pain-free [10] was 88% and 100% and the Headache pain-relief [10] was 100%. The Most bothersome symptom-free [10] was 100%, the Headache pain-free (24 h, naltrexone/acetaminophen 3.25 mg/325 mg (N=3), naltrexone 3.25 mg (N=3)) was 100% and the Additional meds taken [11] was 0 (0). For the same compound, the Headache pain-free [11] was 9 (100) n (%), the Headache pain-relief [11] was 9 (100) n (%) and the Most bothersome symptom-free [11] was 9 (100) n (%). For the same compound, the Nausea-free [11] was 9 (100) n (%), the Neck/shoulder pain-free [11] was 9 (100) n (%) and the Phonophobia-free [11] was 9 (100) n (%). The Photophobia-free [11] was 9 (100) n (%), the Additional meds taken [12] was 0 and the Headache pain-free [12] was 3 (100) n (%). The Headache pain-relief [12] was 3 (100) n (%), the Most bothersome symptom-free [12] was 3 (100) n (%) and the Nausea-free [12] was 3 (100) n (%). The Neck/shoulder pain-free [12] was 3 (100) n (%), the Phonophobia-free [12] was 3 (100) n (%) and the Photophobia-free [12] was 3 (100) n (%). For the same compound, the Additional meds taken [13] was 1, the Headache pain-free [13] was 1 (100) n (%) and the Headache pain-relief [13] was 1 (100) n (%). The Most bothersome symptom-free [13] was 1 (100) n (%), the Nausea-free [13] was 1 (100) n (%) and the Neck/shoulder pain-free [13] was 1 (100) n (%). The Phonophobia-free [13] was 1 (100) n (%), the Photophobia-free [13] was 1 (100) n (%) and the Additional meds taken [14] was 0. For the same compound, the Headache pain-free [14] was 2 (66) n (%), the Headache pain-relief [14] was 2 (66) n (%) and the Most bothersome symptom-free [14] was 2 (66) n (%). The Nausea-free [14] was 2 (66) n (%), the Neck/shoulder pain-free [14] was 3 (100) n (%) and the Phonophobia-free [14] was 3 (100) n (%). The Photophobia-free [14] was 2 (66) n (%), the Additional meds taken (48 h, combined doses) was 1 and the Headache pain-free (48 h, combined doses) was 15 (94) n (%). The Headache pain-relief (48 h, combined doses) was 15 (94) n (%), the Most bothersome symptom-free (48 h, combined doses) was 15 (94) n (%) and the Nausea-free (48 h, combined doses) was 15 (94) n (%). The Neck/shoulder pain-free (48 h, combined doses) was 16 (100) n (%), the Phonophobia-free (48 h, combined doses) was 16 (100) n (%) and the Photophobia-free (48 h, combined doses) was 15 (94) n (%). The Headache pain-free (48 h, naltrexone 1.5 mg (N=3)) was 100%, the Headache pain-free [15] was 100% and the Headache pain-relief [15] was 100%. For the same compound, the Most bothersome symptom-free [15] was 100%, the Headache pain-free (48 h, naltrexone/acetaminophen 3.25 mg/325 mg (N=3), naltrexone 3.25 mg (N=3)) was 100% and the Headache pain-free (from 90 minutes to 48 hours, naltrexone alone, all dosages (1.5, 2.25, 3.25, 5 mg)) was 100%.
